# From patent publication US20240383901A1, “SUBSTITUTED PYRROLO[2,3-D]PYRIMIDINES, THEIR PREPARATION AND THEIR THERAPEUTIC APPLICATION” (SANOFI, priority 2021, published 2024)
# Target: LRRK2 (Homo sapiens, UniProt Q5S007)
# Experiment: LRRK2 WT assay (Assay B, radiometric 33P-ATP filter binding)
# Type: biochemical
# Conditions: Assay B (values marked *)
# Description: LRRK2(human) is incubated with 50 mM HEPES pH 8.0, 0.2 mM EDTA, 0.01% Brij-35, 1% (w/v) BSA, 5 mM DTT, 250 Mm […], 10 mM Magnesium acetate and [[…]]-ATP (specific activity and concentration as required).
# The reaction is initiated by the addition of the Mg/ATP mix.
# Sequence of LRRK2 (Q5S007 whole entry): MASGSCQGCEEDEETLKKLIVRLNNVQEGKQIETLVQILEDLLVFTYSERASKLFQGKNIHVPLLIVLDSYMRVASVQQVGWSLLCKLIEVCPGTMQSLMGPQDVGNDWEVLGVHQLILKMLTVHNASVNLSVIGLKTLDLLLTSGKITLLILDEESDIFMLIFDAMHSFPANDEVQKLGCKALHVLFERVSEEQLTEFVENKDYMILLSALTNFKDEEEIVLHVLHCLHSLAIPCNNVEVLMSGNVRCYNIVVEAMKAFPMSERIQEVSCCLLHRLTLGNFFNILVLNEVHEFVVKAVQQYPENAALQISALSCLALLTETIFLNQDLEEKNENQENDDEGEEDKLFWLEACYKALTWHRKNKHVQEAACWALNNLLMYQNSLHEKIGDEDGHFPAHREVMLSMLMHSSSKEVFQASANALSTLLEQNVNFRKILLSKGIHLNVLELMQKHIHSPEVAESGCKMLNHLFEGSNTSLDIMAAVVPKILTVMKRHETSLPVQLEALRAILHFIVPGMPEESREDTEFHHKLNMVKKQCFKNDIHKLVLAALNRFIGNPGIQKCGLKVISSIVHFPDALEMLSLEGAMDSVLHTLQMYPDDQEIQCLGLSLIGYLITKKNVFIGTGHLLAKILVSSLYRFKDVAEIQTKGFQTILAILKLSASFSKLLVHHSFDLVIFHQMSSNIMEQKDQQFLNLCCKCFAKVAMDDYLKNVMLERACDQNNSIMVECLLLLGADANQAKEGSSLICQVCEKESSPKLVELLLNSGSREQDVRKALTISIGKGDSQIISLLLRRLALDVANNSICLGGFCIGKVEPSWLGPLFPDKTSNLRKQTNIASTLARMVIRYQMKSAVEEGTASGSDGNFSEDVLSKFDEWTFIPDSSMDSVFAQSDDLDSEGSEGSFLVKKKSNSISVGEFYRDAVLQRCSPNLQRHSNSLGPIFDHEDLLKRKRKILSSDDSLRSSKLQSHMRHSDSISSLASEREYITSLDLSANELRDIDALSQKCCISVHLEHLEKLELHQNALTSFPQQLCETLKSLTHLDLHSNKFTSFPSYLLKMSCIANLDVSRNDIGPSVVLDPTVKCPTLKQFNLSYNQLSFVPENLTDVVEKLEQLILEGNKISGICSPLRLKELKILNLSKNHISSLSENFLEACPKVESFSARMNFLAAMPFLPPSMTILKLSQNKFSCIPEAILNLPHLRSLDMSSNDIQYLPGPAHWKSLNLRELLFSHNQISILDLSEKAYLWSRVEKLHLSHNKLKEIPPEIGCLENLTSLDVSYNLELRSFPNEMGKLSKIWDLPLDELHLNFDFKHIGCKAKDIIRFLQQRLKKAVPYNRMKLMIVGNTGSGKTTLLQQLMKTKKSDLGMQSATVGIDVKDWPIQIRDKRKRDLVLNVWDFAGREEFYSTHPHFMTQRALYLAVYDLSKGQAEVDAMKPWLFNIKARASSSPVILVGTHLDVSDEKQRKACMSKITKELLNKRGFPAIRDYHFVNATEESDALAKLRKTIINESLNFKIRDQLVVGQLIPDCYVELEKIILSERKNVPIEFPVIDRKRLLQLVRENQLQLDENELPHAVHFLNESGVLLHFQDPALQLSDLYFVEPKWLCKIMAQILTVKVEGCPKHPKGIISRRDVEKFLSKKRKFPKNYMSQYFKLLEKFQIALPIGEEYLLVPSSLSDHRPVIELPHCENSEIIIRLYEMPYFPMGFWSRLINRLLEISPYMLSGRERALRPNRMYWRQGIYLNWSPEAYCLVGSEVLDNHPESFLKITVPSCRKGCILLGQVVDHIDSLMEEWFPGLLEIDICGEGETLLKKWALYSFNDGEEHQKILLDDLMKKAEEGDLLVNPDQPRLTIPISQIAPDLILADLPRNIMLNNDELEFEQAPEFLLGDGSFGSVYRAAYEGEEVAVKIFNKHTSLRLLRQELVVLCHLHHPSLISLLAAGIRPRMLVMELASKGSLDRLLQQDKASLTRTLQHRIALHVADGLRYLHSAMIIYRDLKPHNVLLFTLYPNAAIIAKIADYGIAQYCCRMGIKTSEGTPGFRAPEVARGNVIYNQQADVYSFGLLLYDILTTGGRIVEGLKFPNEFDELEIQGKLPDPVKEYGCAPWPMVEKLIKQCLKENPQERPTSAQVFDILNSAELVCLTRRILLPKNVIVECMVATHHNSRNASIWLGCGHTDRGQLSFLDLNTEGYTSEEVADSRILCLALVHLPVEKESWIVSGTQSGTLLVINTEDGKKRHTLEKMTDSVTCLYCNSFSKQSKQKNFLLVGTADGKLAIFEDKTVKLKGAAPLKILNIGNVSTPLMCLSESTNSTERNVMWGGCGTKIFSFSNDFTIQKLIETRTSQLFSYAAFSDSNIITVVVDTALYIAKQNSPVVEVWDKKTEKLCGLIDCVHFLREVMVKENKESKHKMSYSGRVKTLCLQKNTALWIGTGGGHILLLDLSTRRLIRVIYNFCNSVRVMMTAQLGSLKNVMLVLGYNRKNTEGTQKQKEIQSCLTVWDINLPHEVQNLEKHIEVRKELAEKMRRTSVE
row,Compound,IC50
1,"CO[C@H]1COC[C@H]1n1c(C#N)cc2cnc(Nc3ccnc4c3O[C@H](C)CCO4)nc21 [Example 69, 7-((3R,4R)-4-Methoxytetrahydrofuran-3-yl)-2-(((R)-2-methyl-3,4-dihydro-2H-[1,4]dioxepino[2,3-b]pyridin-9-yl)amino)-7H-pyrrolo[2,3-d]pyrimidine-6-carbonitrile]",597 nM
2,"Cn1cc(Nc2ncc3cc(C#N)n(C4CCCOC4)c3n2)c(OC2COC2)n1 (single isomer, unassigned) [Example 82, 2-((1-methyl-3-(oxetan-3-yloxy)-1 H-pyrazol-4-yl)amino)-7-(tetrahydro-2H-pyran-3-yl)-7H-pyrrolo[2,3-d]pyrimidine-6-carbonitrile]",104 nM
3,"CO[C@H]1COC[C@H]1n1c(C#N)cc2cnc(Nc3cn(C(C)(C)C#N)nc3OC(C)C)nc21 [Example 60, 2-((1-(2-Cyanopropan-2-yl)-3-isopropoxy-1H-pyrazol-4-yl)amino)-7-((3R,4R)-4-methoxytetrahydrofuran-3-yl)-7H-pyrrolo[2,3-d]pyrimidine-6-carbonitrile]",42 nM
4,"CC(C)Oc1nn(C(C)C#N)cc1Nc1ncc2cc(C#N)n([C@@H]3COC[C@@H]3C)c2n1 (single isomer, unassigned) [Example 48, 2-((1-(1-cyanoethyl)-3-isopropoxy-1 H-pyrazol-4-yl)amino)-7-((cis)-4-methyltetrahydrofuran-3-yl)-7H-pyrrolo[2,3-d]pyrimidine-6-carbonitrile]",256 nM
5,"CO[C@H]1COC[C@H]1n1c(C#N)cc2cnc(Nc3cn(C4COC4)nc3OC(C)C)nc21 [Example 63, 2-((3-Isopropoxy-1-(oxetan-3-yl)-1H-pyrazol-4-yl)amino)-7-((3R,4R)-4-methoxytetrahydrofuran-3-yl)-7H-pyrrolo[2,3-d]pyrimidine-6-carbonitrile]",201 nM
6,"CC(C)Oc1nn(C)cc1Nc1ncc2cc(C#N)n(C3COC3)c2n1 [Example 75, 2-((3-Isopropoxy-1-methyl-1 H-pyrazol-4-yl)amino)-7-(oxetan-3-yl)-7H-pyrrolo[2,3-d]pyrimidine-6-carbonitrile]",44 nM
7,"CC(C)Oc1nn(C(C)C#N)cc1Nc1ncc2cc(C#N)n([C@@H]3COC[C@@H]3C)c2n1 (single isomer, unassigned) [Example 51, 2-((1-(1-cyanoethyl)-3-isopropoxy-1 H-pyrazol-4-yl)amino)-7-((cis)-4-methyltetrahydrofuran-3-yl)-7H-pyrrolo[2,3-d]pyrimidine-6-carbonitrile]",5 nM
8,"Cn1cc(Nc2ncc3cc(C#N)n(C4CCCOC4)c3n2)c(OC2COC2)n1 (single isomer, unassigned) [Example 81, 2-((1-methyl-3-(oxetan-3-yloxy)-1 H-pyrazol-4-yl)amino)-7-(tetrahydro-2H-pyran-3-yl)-7H-pyrrolo[2,3-d]pyrimidine-6-carbonitrile]",183 nM
9,"CC[C@@H]1COC[C@H]1n1c(C#N)cc2cnc(Nc3cn(C)nc3OC(C)C)nc21 (racemic) [Example 73, 7-((trans)-4-ethyltetrahydrofuran-3-yl)-2-((3-isopropoxy-1-methyl-1 H-pyrazol-4-yl)amino)-7H-pyrrolo[2,3-d]pyrimidine-6-carbonitrile]",11 nM
10,"Cn1cc(Nc2ncc3cc(C#N)n(C4CCOC4)c3n2)c(OC2COC2)n1 (single isomer, unassigned) [Example 53, 2-((1-methyl-3-(oxetan-3-yloxy)-1 H-pyrazol-4-yl)amino)-7-(tetrahydrofuran-3-yl)-7H-pyrrolo[2,3-d]pyrimidine-6-carbonitrile]",266 nM
11,"CO[C@H]1COC[C@H]1n1c(C#N)cc2cnc(Nc3cn(C(C)C#N)nc3OC3CC3)nc21 (stereo partly drawn) [Example 58, 2-((1-(1-Cyanoethyl)-3-cyclopropoxy-1H-pyrazol-4-yl)amino)-7-((3R,4R)-4-methoxytetrahydrofuran-3-yl)-7H-pyrrolo[2,3-d]pyrimidine-6-carbonitrile]",15 nM
12,"Cn1cc(Nc2ncc3cc(C#N)n(C4CCOC4)c3n2)c(OC2COC2)n1 (single isomer, unassigned) [Example 52, 2-((1-methyl-3-(oxetan-3-yloxy)-1 H-pyrazol-4-yl)amino)-7-(tetrahydrofuran-3-yl)-7H-pyrrolo[2,3-d]pyrimidine-6-carbonitrile]",26 nM
13,"CC[C@H](C)Oc1nn(C)cc1Nc1ncc2cc(C#N)n([C@@H]3COC[C@@H]3OC)c2n1 [Example 67, 2-((3-((S)-sec-Butoxy)-1-methyl-1H-pyrazol-4-yl)amino)-7-((3R,4R)-4-methoxytetrahydrofuran-3-yl)-7H-pyrrolo[2,3-d]pyrimidine-6-carbonitrile]",297 nM
14,"CC1COCCC1n1c(C#N)cc2cnc(Nc3cn(C)nc3OC3COC3)nc21 (single isomer, unassigned) [Example 86, ((1-methyl-3-(oxetan-3-yloxy)-1 H-pyrazol-4-yl)amino)-7-((cis)-3-methyltetrahydro-2H-pyran-4-yl)-7H-pyrrolo[2,3-d]pyrimidine-6-carbonitrile]",435 nM
15,"CO[C@H]1COC[C@H]1n1c(C#N)cc2cnc(Nc3cn(C(C)C)nc3OC3CC3)nc21 [Example 61, 2-((3-Cyclopropoxy-1-isopropyl-1H-pyrazol-4-yl)amino)-7-((3R,4R)-4-methoxytetrahydrofuran-3-yl)-7H-pyrrolo[2,3-d]pyrimidine-6-carbonitrile]",133 nM
16,"CO[C@H]1COC[C@H]1n1c(C#N)cc2cnc(Nc3cn(C4COC4)nc3OC3CC3)nc21 [Example 64, 2-((3-Cyclopropoxy-1-(oxetan-3-yl)-1H-pyrazol-4-yl)amino)-7-((3R,4R)-4-methoxytetrahydrofuran-3-yl)-7H-pyrrolo[2,3-d]pyrimidine-6-carbonitrile]",135 nM
17,"C[C@@H]1COCC[C@H]1n1c(C#N)cc2cnc(Nc3cn(C)nc3OC3COC3)nc21 (single isomer, unassigned) [Example 84, 2-((1-methyl-3-(oxetan-3-yloxy)-1 H-pyrazol-4-yl)amino)-7-((trans)-3-methyltetrahydro-2H-pyran-4-yl)-7H-pyrrolo[2,3-d]pyrimidine-6-carbonitrile]",7 nM
18,"CC(C)Oc1nn(C(C)C#N)cc1Nc1ncc2cc(C#N)n([C@@H]3COC[C@@H]3C)c2n1 (single isomer, unassigned) [Example 50, 2-((1-(1-cyanoethyl)-3-isopropoxy-1 H-pyrazol-4-yl)amino)-7-((cis)-4-methyltetrahydrofuran-3-yl)-7H-pyrrolo[2,3-d]pyrimidine-6-carbonitrile]",7 nM
19,"CC(C)Oc1nn(C(C)C#N)cc1Nc1ncc2cc(C#N)n([C@@H]3COC[C@@H]3C)c2n1 (single isomer, unassigned) [Example 49, 2-((1-(1-cyanoethyl)-3-isopropoxy-1 H-pyrazol-4-yl)amino)-7-((cis)-4-methyltetrahydrofuran-3-yl)-7H-pyrrolo[2,3-d]pyrimidine-6-carbonitrile]",274 nM
20,"CO[C@H]1COC[C@H]1n1c(C#N)cc2cnc(Nc3cn(C)nc3OC3CC(F)(F)C3)nc21 [Example 65, 2-((3-(3,3-Difluorocyclobutoxy)-1-methyl-1H-pyrazol-4-yl)amino)-7-((3R,4R)-4-methoxytetrahydrofuran-3-yl)-7H-pyrrolo[2,3-d]pyrimidine-6-carbonitrile]",187 nM
21,"CO[C@H]1COC[C@H]1n1c(C#N)cc2cnc(Nc3cn(C)nc3OC(C)C)nc21 [Example 62, 2-((3-Isopropoxy-1-methyl-1H-pyrazol-4-yl)amino)-7-((3R,4R)-4-methoxytetrahydrofuran-3-yl)-7H-pyrrolo[2,3-d]pyrimidine-6-carbonitrile]",114 nM
22,"[2H]c1c(Nc2ncc3cc(C#N)n([C@H]4COC[C@@H]4C)c3n2)c(OC2COC2)nn1C [Example 94, 2-((1-Methyl-3-(oxetan-3-yloxy)-1 H-pyrazol-4-yl-5-d)amino)-7-((3R,4R)-4-methyltetrahydrofuran-3-yl)-7H-pyrrolo[2,3-d]pyrimidine-6-carbonitrile]",7 nM
23,"CC1COCCC1n1c(C#N)cc2cnc(Nc3cn(C)nc3OC3COC3)nc21 (single isomer, unassigned) [Example 85, ((1-methyl-3-(oxetan-3-yloxy)-1 H-pyrazol-4-yl)amino)-7-((cis)-3-methyltetrahydro-2H-pyran-4-yl)-7H-pyrrolo[2,3-d]pyrimidine-6-carbonitrile]",41 nM
24,"CO[C@H]1COC[C@H]1n1c(C#N)cc2cnc(Nc3cn(C(C)C#N)nc3OC(C)C)nc21 (single isomer, unassigned) [Example 57]",27 nM
25,"CC[C@H]1COC[C@H]1n1c(C#N)cc2cnc(Nc3cn(C)nc3OC(C)C)nc21 (racemic) [Example 72, 7-((cis)-4-ethyltetrahydrofuran-3-yl)-2-((3-isopropoxy-1-methyl-1 H-pyrazol-4-yl)amino)-7H-pyrrolo[2,3-d]pyrimidine-6-carbonitrile]",83 nM
26,"[2H]c1c(Nc2ncc3cc(C#N)n([C@@H](C)COC)c3n2)c(OC2CC2)nn1COC [Example 95, (S)-2-((3-cyclopropoxy-1-(methoxymethyl)-1H-pyrazol-4-yl-5-d)amino)-7-(1-methoxypropan-2-yl)-7H-pyrrolo[2,3-d]pyrimidine-6-carbonitrile]",16 nM
27,"[2H]c1c(Nc2ncc3cc(C#N)n([C@H]4COC[C@@H]4C)c3n2)c(OC2COC2)nn1C([2H])([2H])[2H] [Example 98, 2-((1-(methyl-d3)-3-(oxetan-3-yloxy)-1H-pyrazol-4-yl-5-d)amino)-7-((3R,4R)-4-methyltetrahydrofuran-3-yl)-7H-pyrrolo[2,3-d]pyrimidine-6-carbonitrile]",12 nM
28,"C[C@@H]1COCC[C@H]1n1c(C#N)cc2cnc(Nc3cn(C)nc3OC3COC3)nc21 (single isomer, unassigned) [Example 83, 2-((1-methyl-3-(oxetan-3-yloxy)-1 H-pyrazol-4-yl)amino)-7-((trans)-3-methyltetrahydro-2H-pyran-4-yl)-7H-pyrrolo[2,3-d]pyrimidine-6-carbonitrile]",134 nM
